The source of these data is publication PMC9413440, “An Iterative Approach Guides Discovery of the FabI Inhibitor Fabimycin, a Late-Stage Antibiotic Candidate with In Vivo Efficacy against Drug-Resistant Gram-Negative Infections” (ACS Central Science, 2022).

This assay concerns E. coli MG1655. In words: Serial passaging. Format: cell-based, Escherichia coli. As to conditions: E. coli MG1655, subinhibitory concentration, 21 days. Here is the method: Serial passaging procedure was done as reported in literature.5 Briefly, E. coli MG1655 cells were grown in 0.6 mL of MH media containing fabimycin and ciprofloxacin (control) at different concentrations. Cells were added to the respective compounds at 0.25X, 0.5X, 1X, 2X, and 4X to start. At 22-24 hours the cultures were checked for growth. […]
compound at varying concentrations based off of the MIC. This serial passaging was repeated for 21 days. […]
All cells were cultured […]
at 37 °C under a 5% CO2 environment. Cell lines were authenticated by a commercial vendor and inspected visually in house. Cell lines were not tested for Mycoplasma contamination. The media was prepared by the University of Illinois School of Chemical Sciences Cell Media Facility.
H. sapiens HFF-1, A549, and HepG2 cells were seeded (3,000-6,000 cells/well) in a 96-well plate (Greiner Bio-One;

Turning to `Cc1c(CN(C)C(=O)/C=C/c2cnc3c(c2)CC[C@H](N)C(=O)N3)oc2ccccc12` [fabimycin], the “increase in the MIC after serial passaging” value is recorded as 8 fold.
